This note sets out measurements from US8022099B2, “N-benzyl pyrrolidine derivatives” (Hoffmann-La Roche Inc., priority 2008, dated 2011).

Broadly, the pKi is −log10 of the Ki, conventionally taken in molar units.

The structures appear in SMILES notation. pKi: −log10 of the molar value.

For this assay, the target named is T1, human NK3 receptor (Homo sapiens, UniProt P29371).
T1 construct: expressed in transfected cells; host or cells: HEK293 cells (transient expression), membrane preparation
T1 sequence (P29371 1-465): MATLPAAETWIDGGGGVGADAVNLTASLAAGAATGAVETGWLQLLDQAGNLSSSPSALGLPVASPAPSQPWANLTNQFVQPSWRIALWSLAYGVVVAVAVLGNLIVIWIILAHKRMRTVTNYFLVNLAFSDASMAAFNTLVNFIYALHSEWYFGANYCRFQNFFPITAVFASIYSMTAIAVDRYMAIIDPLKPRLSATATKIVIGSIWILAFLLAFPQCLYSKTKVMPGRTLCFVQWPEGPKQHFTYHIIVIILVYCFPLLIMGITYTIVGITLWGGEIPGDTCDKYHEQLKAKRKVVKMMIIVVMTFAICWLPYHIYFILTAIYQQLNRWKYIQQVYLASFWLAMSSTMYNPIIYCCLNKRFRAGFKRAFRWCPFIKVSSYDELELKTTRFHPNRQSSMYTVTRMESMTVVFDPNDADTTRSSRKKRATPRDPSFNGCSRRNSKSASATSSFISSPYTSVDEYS
The experiment in a line: [3H]SR142801 competition binding assay. As to conditions: hNK3 receptor binding, [3H]SR142801, membranes from HEK293 cells transiently expressing recombinant human NK3 receptor. In short, it runs like this: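 Membranes from HEK293 cells transiently expressing human NK3 were incubated 75 min at RT with [3H]SR142801 at its KD and inhibitor (0.0003-10 μM) in Tris-HCl pH 7.4/MnCl2/phosphoramidon/BSA. Nonspecific binding used 10 μM SB222200. Ki from Hill-fitted IC50 via Cheng-Prusoff, duplicate determinations.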
With `CN(Cc1ccc(C(F)(F)F)c(F)c1)[C@H]1CN(C(=O)CN2CCN(CCC#N)CC2)C[C@@H]1c1ccc(Cl)c(Cl)c1` (racemic) [Example 118, 3-[4-(2-{(3SR,4RS)-3-(3,4-Dichloro-phenyl)-4-[(3-fluoro-4-trifluoromethyl-benzyl)-methyl-amino]-pyrrolidin-1-yl}-2-oxo-ethyl)-piperazin-1-yl]-propionitrile], the pKi is 7.95.
For the molecule `CN(C)CCNCC(=O)N1C[C@H](c2ccc(Cl)c(Cl)c2)[C@@H](N(C)Cc2ccc(C(F)(F)F)c(F)c2)C1` (racemic) [Example 124, 1-{(3SR,4RS)-3-(3,4-Dichloro-phenyl)-4-[(3-fluoro-4-trifluoromethyl-benzyl)-methyl-amino]-pyrrolidin-1-yl}-2-(2-dimethylamino-ethylamino)-ethanone], the pKi was 7.02.
Consider `CN(C)CCCNCC(=O)N1C[C@H](c2ccc(Cl)c(Cl)c2)[C@@H](N(C)Cc2ccc(C(F)(F)F)c(F)c2)C1` (racemic) [Example 125, 1-{(3SR,4RS)-3-(3,4-Dichloro-phenyl)-4-[(3-fluoro-4-trifluoromethyl-benzyl)-methyl-amino]-pyrrolidin-1-yl}-2-(3-dimethylamino-propylamino)-ethanone], for which the pKi was 7.11.
With `CN(C)CCCN(C)CC(=O)N1C[C@H](c2ccc(Cl)c(Cl)c2)[C@@H](N(C)Cc2ccc(C(F)(F)F)c(F)c2)C1` (racemic) [Example 126, 1-{(3SR,4RS)-3-(3,4-Dichloro-phenyl)-4-[(3-fluoro-4-trifluoromethyl-benzyl)-methyl-amino]-pyrrolidin-1-yl}-2-[(3-dimethylamino-propyl)-methyl-amino]-ethanone], the pKi was 7.09.
`CN(Cc1ccc(C(F)(F)F)c(F)c1)[C@H]1CN(C(=O)CNCCC#N)C[C@@H]1c1ccc(Cl)c(Cl)c1` (racemic) [Example 127, 3-(2-{(3SR,4RS)-3-(3,4-Dichloro-phenyl)-4-[(3-fluoro-4-trifluoromethyl-benzyl)-methyl-amino]-pyrrolidin-1-yl}-2-oxo-ethylamino)-propionitrile]: the negative-log Ki (pKi) was 7.00.
As to `CN(CCC#N)CC(=O)N1C[C@H](c2ccc(Cl)c(Cl)c2)[C@@H](N(C)Cc2ccc(C(F)(F)F)c(F)c2)C1` (racemic) [Example 128, 3-[(2-{(3SR,4RS)-3-(3,4-Dichloro-phenyl)-4-[(3-fluoro-4-trifluoromethyl-benzyl)-methyl-amino]-pyrrolidin-1-yl}-2-oxo-ethyl)-methyl-amino]-propionitrile], the negative logarithm of the Ki (pKi) is 7.14.
For the molecule `CN(Cc1ccc(C(F)(F)F)c(F)c1)[C@H]1CN(C(=O)CN2CCN(CCCO)CC2)C[C@@H]1c1ccc(Cl)c(Cl)c1` (racemic) [Example 129, 1-{(3SR,4RS)-3-(3,4-Dichloro-phenyl)-4-[(3-fluoro-4-trifluoromethyl-benzyl)-methyl-amino]-pyrrolidin-1-yl}-2-[4-(3-hydroxy-propyl)-piperazin-1-yl]-ethanone], the pKi was 7.77.
In the case of `CN(Cc1ccc(C(F)(F)F)c(F)c1)[C@H]1CN(C(=O)CN2CCC(C#N)CC2)C[C@@H]1c1ccc(Cl)c(Cl)c1` (racemic) [Example 130, 1-(2-{(3SR,4RS)-3-(3,4-Dichloro-phenyl)-4-[(3-fluoro-4-trifluoromethyl-benzyl)-methyl-amino]-pyrrolidin-1-yl}-2-oxo-ethyl)-piperidine-4-carbonitrile] it was 7.60; in that of `CN(Cc1ccc(C(F)(F)F)c(F)c1)[C@H]1CN(C(=O)CN2CCNCC2)C[C@@H]1c1ccc(Cl)c(Cl)c1` (racemic) [Example 131, 1-{(3SR,4RS)-3-(3,4-Dichloro-phenyl)-4-[(3-fluoro-4-trifluoromethyl-benzyl)-methyl-amino]-pyrrolidin-1-yl}-2-piperazin-1-yl-ethanone], 7.48; in that of `CN(Cc1ccc(C(F)(F)F)c(F)c1)[C@H]1CN(C(=O)CN2CCC(O)CC2)C[C@@H]1c1ccc(Cl)c(Cl)c1` (racemic) [Example 132, 1-{(3SR,4RS)-3-(3,4-Dichloro-phenyl)-4-[(3-fluoro-4-trifluoromethyl-benzyl)-methyl-amino]-pyrrolidin-1-yl}-2-(4-hydroxy-piperidin-1-yl)-ethanone], 7.58.
For `CN(C)C1CCN(CC(=O)N2C[C@H](c3ccc(Cl)c(Cl)c3)[C@@H](N(C)Cc3ccc(C(F)(F)F)c(F)c3)C2)CC1` (racemic) [Example 136, 1-{(3SR,4RS)-3-(3,4-Dichloro-phenyl)-4-[(3-fluoro-4-trifluoromethyl-benzyl)-methyl-amino]-pyrrolidin-1-yl}-2-(4-dimethylamino-piperidin-1-yl)-ethanone], the negative logarithm of the Ki (pKi) is 7.72.
Next, `CC(=O)NC1CCN(CC(=O)N2C[C@H](c3ccc(Cl)c(Cl)c3)[C@@H](N(C)Cc3ccc(C(F)(F)F)c(F)c3)C2)CC1` (racemic) [Example 137, N-[1-(2-{(3SR,4RS)-3-(3,4-Dichloro-phenyl)-4-[(3-fluoro-4-trifluoromethyl-benzyl)-methyl-amino]-pyrrolidin-1-yl}-2-oxo-ethyl)-piperidin-4-yl]-acetamide]: 8.06; `CC(=O)N1CCN(CC(=O)N2C[C@H](c3ccc(Cl)c(Cl)c3)[C@@H](N(C)Cc3ccc(C(F)(F)F)c(F)c3)C2)CC1` (racemic) [Example 138, 2-(4-Acetyl-piperazin-1-yl)-1-{(3SR,4RS)-3-(3,4-dichloro-phenyl)-4-[(3-fluoro-4-trifluoromethyl-benzyl)-methyl-amino]-pyrrolidin-1-yl}-ethanone]: 8.06; `CC1CN(CC(=O)N2C[C@H](c3ccc(Cl)c(Cl)c3)[C@@H](N(C)Cc3ccc(C(F)(F)F)c(F)c3)C2)CC(C)N1` (mixture of isomers) [Example 139, 1-{(3SR,4RS)-3-(3,4-Dichloro-phenyl)-4-[(3-fluoro-4-trifluoromethyl-benzyl)-methyl-amino]-pyrrolidin-1-yl}-2-(3,5-dimethyl-piperazin-1-yl)-ethanone]: 7.60.
Next, `CC1CN(CC(=O)N2C[C@H](c3ccc(Cl)c(Cl)c3)[C@@H](N(C)Cc3ccc(C(F)(F)F)c(F)c3)C2)CC(C)O1` (mixture of isomers) [Example 142, 1-{(3SR,4RS)-3-(3,4-Dichloro-phenyl)-4-[(3-fluoro-4-trifluoromethyl-benzyl)-methyl-amino]-pyrrolidin-1-yl}-2-(2,6-dimethyl-morpholin-4-yl)-ethanone]: 7.71; `CN(Cc1ccc(C(F)(F)F)c(F)c1)[C@H]1CN(C(=O)CN2CCC(NS(C)(=O)=O)CC2)C[C@@H]1c1ccc(Cl)c(Cl)c1` (racemic) [Example 143, N-[1-(2-{(3SR,4RS)-3-(3,4-Dichloro-phenyl)-4-[(3-fluoro-4-trifluoromethyl-benzyl)-methyl-amino]-pyrrolidin-1-yl}-2-oxo-ethyl)-piperidin-4-yl]-methanesulfonamide]: 7.92; `CN(Cc1ccc(C(F)(F)F)c(F)c1)[C@H]1CN(C(=O)CN2CCC(N(C)S(C)(=O)=O)CC2)C[C@@H]1c1ccc(Cl)c(Cl)c1` (racemic) [Example 144, N-[1-(2-{(3SR,4RS)-3-(3,4-Dichloro-phenyl)-4-[(3-fluoro-4-trifluoromethyl-benzyl)-methyl-amino]-pyrrolidin-1-yl}-2-oxo-ethyl)-piperidin-4-yl]-N-methyl-methanesulfonamide]: 8.23.
